From patent US8841290B2, “Substituted tetrahydronaphthalenes, method for the production thereof, and use thereof as drugs” (Sanofi, priority 2009, dated 2014)
In brackets after ≈: the same amount, converted by molar mass.

How the values were obtained:
human MCH receptor = target: T1, human MCH receptor (Homo sapiens, UniProt Q99705); experiment: calcium mobilization assay (FLIPR), functional IC50 of MCH1R antagonists; type: cell-based; conditions: recombinant HEK293 cell line expressing the human MCH receptor; calcium flux after addition of agonist (MCH); read-out: IC50
T1 construct: expressed in transfected cells
T1 sequence (Q99705 whole entry): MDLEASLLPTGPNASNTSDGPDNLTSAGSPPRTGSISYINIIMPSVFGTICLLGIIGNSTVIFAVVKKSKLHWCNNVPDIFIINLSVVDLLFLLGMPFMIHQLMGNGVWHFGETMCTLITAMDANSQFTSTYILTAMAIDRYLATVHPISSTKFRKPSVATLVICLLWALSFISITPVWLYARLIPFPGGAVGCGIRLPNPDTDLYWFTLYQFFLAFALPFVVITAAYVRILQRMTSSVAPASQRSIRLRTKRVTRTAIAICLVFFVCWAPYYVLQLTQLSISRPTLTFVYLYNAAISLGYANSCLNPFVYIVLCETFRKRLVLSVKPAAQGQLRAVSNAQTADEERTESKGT
Text: A difference from the reference was, however, the use of the plasmid pEAK8 from EDGE Biosystems (USA) for the construction of the expression vector. The host used for the transfection was a transformed HEK cell line named “PEAK Stable Cells” (likewise from EDGE Biosystems). Functional measurements of the cellular calcium flux after addition of agonist (MCH) in the presence of ligand of the invention took place with the aid of the FLIPR apparatus from Molecular Devices (USA), using protocols of the apparatus manufacturer.

[1] = nephelometric (kinetic) solubility determination, phosphate buffer pH 7.4; type: physicochemical; conditions: aqueous buffer, kinetic from dmso stock, nephelometric, Table 7
Method: A DMSO solution of the test compound (2.5 mM; 0.5 μl) is pipetted into 200 μl of an aqueous test solution (e.g. phosphate-buffered saline, 10×, 1M, Sigma, adjusted to 10 mM, pH 7.4) in a 96-well microtiter plate, and the turbidity is measured at the resulting theoretical concentration for the test compound of 6.25 μM using a nephelometer (e.g. Nephelostar Galaxy, BMG Labtech). The concentration of the test compound in the aqueous test solution is then raised to a theoretical 12.5 μM by adding further DMSO solution (2.5 mM; 0.5 μl), and the turbidity measurement is repeated. Further additions of DMSO solutions (1 μl, 2.5 mM; 0.5 μl, 10 mM; then 9×1 μl, 10 mM resulting in theoretical concentrations of 25 μM, 50 μM, 100 μM, 150 μM, 200 μM, 250 μM, 300 μM, 350 μM, 400 μM, 450 μM and 500 μM) with turbidity measurement in between complete the measurement process.
Evaluation: The turbidity values from the nephelometer are plotted against the theoretical concentration of the test compound in the aqueous test solution. As soon as a significant turbidity is detected (e.g. 5 times above the control value of the aqueous test solution) at a theoretical concentration, the level of concentration below this is stated to be the solubility limit of the test compound in the test solution. Thus, the maximum possible measurement range emerges as values<6.25 μM, 6.25-500 μM and >500 μM.

Row | SMILES | IC50 (human MCH receptor) | solubility kinetic [1]
1 | CCCCOc1ccc(C(=O)N[C@H]2CCc3cc(CN4CC5CCC4C5)ccc3C2)cc1 (stereo partly drawn) [Example 7-01] | 245 nM | 82 µg/mL (≈ 190 µM)
2 | CN(C(=O)c1ccc(OCC2CC2)cc1)[C@H]1CCc2cc(CN3C[C@@H]4CC[C@H]3C4)ccc2C1 [Example 7-02] | 831 nM | > 279 µg/mL
3 | CN(C(=O)c1ccc(OCC2CC2)cc1)[C@H]1CCc2cc(CN3CC4CCC3CC4)ccc2C1 [Example 7-03] | 1370 nM | > 286 µg/mL
4 | CN(C(=O)c1ccc(OCC2CC2)cc1)[C@H]1CCc2cc(CN3CCC(C(C)(C)O)CC3)ccc2C1 [Example 7-04] | 141 nM | > 302 µg/mL
5 | COC1CCN(Cc2ccc3c(c2)CC[C@H](N(C)C(=O)c2ccc(OCC4CC4)cc2)C3)CC1 [Example 7-05] | 625 nM | > 288 µg/mL
6 | CN(C(=O)c1ccc(OCC2CC2)cc1)[C@H]1CCc2cc(CN3CCC(O)CC3)ccc2C1 [Example 7-06] | 508 nM | > 281 µg/mL
7 | CN(C(=O)c1ccc(OCC2CC2)cc1)[C@H]1CCc2cc(CNC3CCCCC3)ccc2C1 [Example 7-07] | 336 nM | > 280 µg/mL
8 | CN(C(=O)c1ccc(OCC2CC2)cc1)[C@H]1CCc2cc(CNCC3CC3)ccc2C1 [Example 7-08] | 420 nM | > 266 µg/mL
9 | CN(C(=O)c1ccc(OCC2CC2)cc1)[C@H]1CCc2cc(CN3CCC3)ccc2C1 [Example 7-09] | 261 nM | > 259 µg/mL
10 | CN(C(=O)c1ccc(OCC2CC2)cc1)[C@H]1CCc2cc(CNC3CCC3)ccc2C1 [Example 7-10] | 1100 nM | > 266 µg/mL
11 | CN(C(=O)c1ccc(OCC2CC2)cc1)[C@H]1CCc2cc(CNCC(C)(C)C)ccc2C1 [Example 7-11] | 898 nM | > 274 µg/mL
12 | O=C(N[C@H]1CCc2cc(CN3CCCCCC3)ccc2C1)c1ccc(OCC2CC2)cc1 [Example 7-12] | 94 nM | 3 µg/mL (≈ 6.93 µM)
13 | CC(C)(C)CNCc1ccc2c(c1)CC[C@H](NC(=O)c1ccc(OCC3CC3)cc1)C2 [Example 7-13] | 93 nM | 7 µg/mL (≈ 16.6 µM)
14 | O=C(N[C@H]1CCc2cc(CN3C[C@@H]4CC[C@H]3C4)ccc2C1)c1ccc(OCC2CC2)cc1 [Example 7-14] | 92 nM | > 272 µg/mL
15 | CN(C(=O)c1ccc(OCC2CC2)cc1)[C@H]1CCc2cc(CN3CCCCCC3)ccc2C1 [Example 7-15] | 336 nM | > 280 µg/mL
16 | CC(C)CCNCc1ccc2c(c1)CC[C@H](N(C)C(=O)c1ccc(OCC3CC3)cc1)C2 [Example 7-16] | 259 nM | 137 µg/mL (≈ 315 µM)
17 | CCN(CC)Cc1ccc2c(c1)CC[C@H](N(C)C(=O)c1ccc(OCC3CC3)cc1)C2 [Example 7-18] | 668 nM | > 267 µg/mL

Row | SMILES | IC50 (human MCH receptor) | solubility kinetic [1]
18 | CCC(COC)NCc1ccc2c(c1)CC[C@H](N(C)C(=O)c1ccc(OCC3CC3)cc1)C2 (stereo partly drawn) [Example 7-19] | 563 nM | > 282 µg/mL
19 | CCOCCCNCc1ccc2c(c1)CC[C@H](N(C)C(=O)c1ccc(OCC3CC3)cc1)C2 [Example 7-20] | 133 nM | > 282 µg/mL
20 | COCCCNCc1ccc2c(c1)CC[C@H](N(C)C(=O)c1ccc(OCC3CC3)cc1)C2 [Example 7-21] | 133 nM | > 275 µg/mL
21 | COCC1(CNCc2ccc3c(c2)CC[C@H](N(C)C(=O)c2ccc(OCC4CC4)cc2)C3)CC1 [Example 7-22] | 148 nM | > 288 µg/mL
22 | CCOCCNCc1ccc2c(c1)CC[C@H](N(C)C(=O)c1ccc(OCC3CC3)cc1)C2 [Example 7-23] | 108 nM | > 275 µg/mL
23 | COC[C@H](C)NCc1ccc2c(c1)CC[C@H](N(C)C(=O)c1ccc(OCC3CC3)cc1)C2 [Example 7-24] | 384 nM | > 275 µg/mL
24 | COCC(C)(C)CNCc1ccc2c(c1)CC[C@H](N(C)C(=O)c1ccc(OCC3CC3)cc1)C2 [Example 7-25] | 286 nM | > 289 µg/mL
25 | CC(C)OCCNCc1ccc2c(c1)CC[C@H](N(C)C(=O)c1ccc(OCC3CC3)cc1)C2 [Example 7-26] | 149 nM | > 282 µg/mL
26 | CN(C(=O)c1ccc(OCC2CC2)cn1)[C@H]1CCc2cc(CN3CCCCCC3)ccc2C1 [Example 7-27] | 756 nM | 168 µg/mL (≈ 375 µM)
27 | CN(C(=O)c1ccc(OCC2CC2)cn1)[C@H]1CCc2cc(CN3CCC(C)(C)CC3)ccc2C1 [Example 7-28] | 152 nM | > 288 µg/mL
28 | CC1CCN(Cc2ccc3c(c2)CC[C@H](N(C)C(=O)c2ccc(OCC4CC4)cn2)C3)CC1 [Example 7-29] | 215 nM | > 281 µg/mL
29 | CN(C(=O)c1ccc(OCC2CC2)cn1)[C@H]1CCc2cc(CNCC3CCCC3)ccc2C1 [Example 7-30] | 156 nM | > 281 µg/mL
30 | CCC1(CNCc2ccc3c(c2)CC[C@H](N(C)C(=O)c2ccc(OCC4CC4)cn2)C3)CC1 [Example 7-31] | 190 nM | > 281 µg/mL
31 | CC(C)CCNCc1ccc2c(c1)CC[C@H](N(C)C(=O)c1ccc(OCC3CC3)cn1)C2 [Example 7-32] | 145 nM | > 275 µg/mL
32 | CN(C(=O)c1ccc(OCC2CC2)cn1)[C@H]1CCc2cc(CN3CC4CCC3CC4)ccc2C1 [Example 7-33] | 1100 nM | > 287 µg/mL
33 | CN(C(=O)c1ccc(OCC2CC2)cn1)[C@H]1CCc2cc(CNCC(C)(C)C)ccc2C1 [Example 7-34] | 375 nM | > 275 µg/mL
